Experimental data taken from article PMC9681850, “Structural basis of synthetic agonist activation of the nuclear receptor REV-ERB” (Nature Communications, 2022).

Experiments:
5-HT1A = target: T1, 5-HT1A (Homo sapiens, UniProt P08908); test: PDSP radioligand binding assay; conditions: read-out: RLBA Ki
T1 construct: NIMH Psychoactive Drug Screening Program (assay performed there)
Source text: (§1) Receptor RLBA Ki Receptor activity
(§2) Suppl ementary Tabl e 1. Speci fi ci ty of STL1267. […]

5-HT1D = target: T2, 5-HT1D (Homo sapiens, UniProt P28221); test: PDSP radioligand binding assay; conditions: read-out: RLBA Ki
T2 construct: NIMH Psychoactive Drug Screening Program (assay performed there)
Source text: as §1, §2

5-HT2A = target: T3, 5-HT2A (Homo sapiens, UniProt P28223); test: PDSP radioligand binding assay; conditions: read-out: RLBA Ki
T3 construct: NIMH Psychoactive Drug Screening Program (assay performed there)
Source text: as §1, §2

5-HT2B = target: T4, 5-HT2B (Homo sapiens, UniProt P41595); test: PDSP radioligand binding assay; conditions: read-out: RLBA Ki
T4 construct: NIMH Psychoactive Drug Screening Program (assay performed there)
T4 sequence (P41595 whole entry, species assumed): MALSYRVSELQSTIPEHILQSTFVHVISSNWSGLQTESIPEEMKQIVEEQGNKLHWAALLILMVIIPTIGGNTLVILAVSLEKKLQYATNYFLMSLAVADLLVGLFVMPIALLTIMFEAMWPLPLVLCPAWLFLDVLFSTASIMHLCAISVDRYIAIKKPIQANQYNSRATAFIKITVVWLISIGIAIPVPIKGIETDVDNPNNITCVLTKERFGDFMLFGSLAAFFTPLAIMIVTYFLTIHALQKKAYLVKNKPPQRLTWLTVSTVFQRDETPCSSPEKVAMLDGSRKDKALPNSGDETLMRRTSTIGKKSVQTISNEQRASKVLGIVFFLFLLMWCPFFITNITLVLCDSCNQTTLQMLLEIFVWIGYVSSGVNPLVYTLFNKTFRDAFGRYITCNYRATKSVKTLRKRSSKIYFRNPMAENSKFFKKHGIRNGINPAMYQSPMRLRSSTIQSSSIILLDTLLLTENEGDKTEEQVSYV
Source text: as §1, §2

5-HT2C = target: T5, 5-HT2C (Homo sapiens, UniProt P28335); test: PDSP radioligand binding assay; conditions: read-out: RLBA Ki
T5 construct: NIMH Psychoactive Drug Screening Program (assay performed there)
Source text: as §1, §2

5-HT3 = target: T6, 5-HT3 (Homo sapiens, UniProt P46098); test: PDSP radioligand binding assay; conditions: read-out: RLBA Ki
T6 construct: NIMH Psychoactive Drug Screening Program (assay performed there)
Source text: as §1, §2

5-HT5A = target: T7, 5-HT5A (Homo sapiens, UniProt P47898); test: PDSP radioligand binding assay; conditions: read-out: RLBA Ki
T7 construct: NIMH Psychoactive Drug Screening Program (assay performed there)
T7 sequence (P47898 whole entry, species assumed): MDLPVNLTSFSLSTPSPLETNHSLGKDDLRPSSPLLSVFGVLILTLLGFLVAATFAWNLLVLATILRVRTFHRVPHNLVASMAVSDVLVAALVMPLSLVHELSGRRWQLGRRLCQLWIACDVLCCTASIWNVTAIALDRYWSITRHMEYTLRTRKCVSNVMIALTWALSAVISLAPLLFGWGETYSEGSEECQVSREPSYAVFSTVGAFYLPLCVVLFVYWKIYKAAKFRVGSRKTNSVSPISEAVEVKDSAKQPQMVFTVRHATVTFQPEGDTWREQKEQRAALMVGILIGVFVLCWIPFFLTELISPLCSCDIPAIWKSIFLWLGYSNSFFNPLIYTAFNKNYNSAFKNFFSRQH
Source text: as §1, §2

5-HT7A = target: T8, 5-HT7A (Homo sapiens, UniProt P34969); test: PDSP radioligand binding assay; conditions: read-out: RLBA Ki
T8 construct: NIMH Psychoactive Drug Screening Program (assay performed there)
Source text: as §1, §2

Alpha1B = target: T9, Alpha1B (Homo sapiens, UniProt P35368); test: PDSP radioligand binding assay; conditions: read-out: RLBA Ki
T9 construct: NIMH Psychoactive Drug Screening Program (assay performed there)
Source text: as §1, §2

Alpha1D = target: T10, Alpha1D (Homo sapiens, UniProt P25100); test: PDSP radioligand binding assay; conditions: read-out: RLBA Ki
T10 construct: NIMH Psychoactive Drug Screening Program (assay performed there)
T10 sequence (P25100 whole entry): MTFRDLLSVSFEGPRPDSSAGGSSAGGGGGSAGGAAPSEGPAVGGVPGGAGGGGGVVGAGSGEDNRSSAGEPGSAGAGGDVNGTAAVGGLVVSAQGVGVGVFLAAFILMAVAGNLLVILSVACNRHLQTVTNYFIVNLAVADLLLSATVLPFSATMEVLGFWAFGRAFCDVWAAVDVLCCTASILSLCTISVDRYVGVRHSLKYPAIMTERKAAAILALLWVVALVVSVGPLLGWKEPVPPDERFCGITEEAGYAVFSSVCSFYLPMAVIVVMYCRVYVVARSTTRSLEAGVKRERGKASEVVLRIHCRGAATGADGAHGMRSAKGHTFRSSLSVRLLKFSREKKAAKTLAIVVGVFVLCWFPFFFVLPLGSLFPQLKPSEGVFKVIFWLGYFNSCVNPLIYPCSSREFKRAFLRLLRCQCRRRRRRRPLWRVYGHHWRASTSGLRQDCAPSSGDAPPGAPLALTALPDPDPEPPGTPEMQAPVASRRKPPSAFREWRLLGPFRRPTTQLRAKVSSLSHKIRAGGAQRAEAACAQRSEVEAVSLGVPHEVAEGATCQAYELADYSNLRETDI
Source text: as §1, §2

Alpha2A = target: T11, Alpha2A (Homo sapiens, UniProt P08913); test: PDSP radioligand binding assay; conditions: read-out: RLBA Ki
T11 construct: NIMH Psychoactive Drug Screening Program (assay performed there)
Source text: as §1, §2

Alpha2B = target: T12, Alpha2B (Homo sapiens, UniProt P18089); test: PDSP radioligand binding assay; conditions: read-out: RLBA Ki
T12 construct: NIMH Psychoactive Drug Screening Program (assay performed there)
T12 sequence (P18089 whole entry): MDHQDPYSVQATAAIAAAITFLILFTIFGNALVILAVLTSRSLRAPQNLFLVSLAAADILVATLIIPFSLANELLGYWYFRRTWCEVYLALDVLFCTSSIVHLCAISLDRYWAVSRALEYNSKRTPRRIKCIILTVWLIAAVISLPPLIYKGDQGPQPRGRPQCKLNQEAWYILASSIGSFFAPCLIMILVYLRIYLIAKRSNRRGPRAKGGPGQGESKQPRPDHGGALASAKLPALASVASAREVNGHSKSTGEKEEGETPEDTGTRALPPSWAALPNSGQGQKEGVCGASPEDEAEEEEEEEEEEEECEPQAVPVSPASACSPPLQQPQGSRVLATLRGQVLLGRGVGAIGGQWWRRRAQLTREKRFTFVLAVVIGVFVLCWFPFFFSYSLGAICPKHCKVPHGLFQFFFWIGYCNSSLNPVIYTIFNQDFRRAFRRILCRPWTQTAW
Source text: as §1, §2

Alpha2C = target: T13, Alpha2C (Homo sapiens, UniProt P18825); test: PDSP radioligand binding assay; conditions: read-out: RLBA Ki
T13 construct: NIMH Psychoactive Drug Screening Program (assay performed there)
Source text: as §1, §2

Beta2 = Beta2 (Homo sapiens, UniProt P07550); test: PDSP radioligand binding assay; conditions: read-out: RLBA Ki
Source text: as §1, §2

Beta3 = Beta3 (Homo sapiens, UniProt P13945); test: PDSP radioligand binding assay; conditions: read-out: RLBA Ki
Source text: as §1, §2

D1 = D1 (Homo sapiens, UniProt P21728); test: PDSP radioligand binding assay; conditions: read-out: RLBA Ki
Source text: as §1, §2

D2 = D2 (Homo sapiens, UniProt P14416); test: PDSP radioligand binding assay; conditions: read-out: RLBA Ki
Sequence of D2 (P14416 whole entry): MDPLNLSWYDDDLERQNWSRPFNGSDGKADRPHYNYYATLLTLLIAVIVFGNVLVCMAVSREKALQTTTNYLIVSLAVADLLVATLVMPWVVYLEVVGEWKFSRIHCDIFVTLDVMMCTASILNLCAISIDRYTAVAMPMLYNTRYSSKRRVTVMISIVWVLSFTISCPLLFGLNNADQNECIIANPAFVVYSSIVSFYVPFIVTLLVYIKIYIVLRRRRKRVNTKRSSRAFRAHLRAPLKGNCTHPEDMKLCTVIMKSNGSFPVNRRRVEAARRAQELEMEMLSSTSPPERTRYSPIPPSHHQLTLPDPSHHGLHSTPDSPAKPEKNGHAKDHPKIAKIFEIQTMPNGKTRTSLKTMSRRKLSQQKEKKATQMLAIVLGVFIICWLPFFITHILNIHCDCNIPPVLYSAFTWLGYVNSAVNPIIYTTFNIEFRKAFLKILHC
Source text: as §1, §2

D3 = D3 (Homo sapiens, UniProt P35462); test: PDSP radioligand binding assay; conditions: read-out: RLBA Ki
Source text: as §1, §2

D4 = D4 (Homo sapiens, UniProt P21917); test: PDSP radioligand binding assay; conditions: read-out: RLBA Ki
Source text: as §1, §2

DAT = DAT (Homo sapiens, UniProt Q01959); test: PDSP radioligand binding assay; conditions: read-out: RLBA Ki
Sequence of DAT (Q01959 whole entry, species assumed): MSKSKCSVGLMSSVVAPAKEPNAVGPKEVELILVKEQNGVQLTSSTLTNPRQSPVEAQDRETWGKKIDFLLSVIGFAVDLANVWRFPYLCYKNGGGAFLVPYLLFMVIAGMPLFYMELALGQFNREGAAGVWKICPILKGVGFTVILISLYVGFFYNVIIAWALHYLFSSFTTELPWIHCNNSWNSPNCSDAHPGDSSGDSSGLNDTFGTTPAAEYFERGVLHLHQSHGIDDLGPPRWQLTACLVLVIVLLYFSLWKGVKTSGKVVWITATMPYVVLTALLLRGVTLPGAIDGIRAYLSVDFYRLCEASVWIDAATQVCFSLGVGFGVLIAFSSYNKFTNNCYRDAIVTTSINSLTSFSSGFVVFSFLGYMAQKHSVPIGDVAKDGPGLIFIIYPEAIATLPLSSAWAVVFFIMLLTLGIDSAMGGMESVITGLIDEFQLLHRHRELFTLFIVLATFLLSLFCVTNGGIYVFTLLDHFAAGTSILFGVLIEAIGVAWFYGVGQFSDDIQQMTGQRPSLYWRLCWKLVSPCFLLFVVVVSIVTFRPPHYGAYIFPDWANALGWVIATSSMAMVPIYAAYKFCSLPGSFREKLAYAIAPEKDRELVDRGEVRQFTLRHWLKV
Source text: as §1, §2

DOR = DOR (Homo sapiens, UniProt P41143); test: PDSP radioligand binding assay; conditions: read-out: RLBA Ki
Source text: as §1, §2

GABAA = test: PDSP radioligand binding assay; conditions: read-out: RLBA Ki
Source text: as §1, §2

H1 = H1 (Homo sapiens, UniProt P35367); test: PDSP radioligand binding assay; conditions: read-out: RLBA Ki
Source text: as §1, §2

H4 = H4 (Homo sapiens, UniProt Q9H3N8); test: PDSP radioligand binding assay; conditions: read-out: RLBA Ki
Source text: as §1, §2

M1 = M1 (Homo sapiens, UniProt P11229); test: PDSP radioligand binding assay; conditions: read-out: RLBA Ki
Source text: as §1, §2

M2 = M2 (Homo sapiens, UniProt P08172); test: PDSP radioligand binding assay; conditions: read-out: RLBA Ki
Sequence of M2 (P08172 whole entry): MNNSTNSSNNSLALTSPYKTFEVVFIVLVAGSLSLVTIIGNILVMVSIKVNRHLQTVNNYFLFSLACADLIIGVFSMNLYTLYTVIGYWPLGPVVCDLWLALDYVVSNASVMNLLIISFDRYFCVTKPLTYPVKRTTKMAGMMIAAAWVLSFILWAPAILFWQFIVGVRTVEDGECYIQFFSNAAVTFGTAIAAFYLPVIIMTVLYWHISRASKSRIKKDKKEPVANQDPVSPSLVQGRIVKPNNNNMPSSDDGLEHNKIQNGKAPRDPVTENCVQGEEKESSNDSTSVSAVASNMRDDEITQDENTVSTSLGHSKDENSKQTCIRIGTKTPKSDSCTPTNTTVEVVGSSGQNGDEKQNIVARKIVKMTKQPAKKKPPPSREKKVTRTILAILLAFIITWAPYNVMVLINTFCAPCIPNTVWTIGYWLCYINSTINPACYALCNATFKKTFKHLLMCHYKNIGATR
Source text: as §1, §2

M3 = M3 (Homo sapiens, UniProt P20309); test: PDSP radioligand binding assay; conditions: read-out: RLBA Ki
Source text: as §1, §2

M4 = M4 (Homo sapiens, UniProt P08173); test: PDSP radioligand binding assay; conditions: read-out: RLBA Ki
Source text: as §1, §2

M5 = M5 (Homo sapiens, UniProt P08912); test: PDSP radioligand binding assay; conditions: read-out: RLBA Ki
Source text: as §1, §2

MOR = MOR (Homo sapiens, UniProt P35372); test: PDSP radioligand binding assay; conditions: read-out: RLBA Ki
Source text: as §1, §2

NET = NET (Homo sapiens, UniProt P23975); test: PDSP radioligand binding assay; conditions: read-out: RLBA Ki
Source text: as §1, §2

AR = AR (Homo sapiens, UniProt P10275); test: Gal4-UAS reporter assay for nuclear receptor specificity; type: cell-based; conditions: Gal4 DBD-NR, HEK293 cells, 10 µM
Source text: (§3) We assessed the specificity of STL1267 using both in house nuclear receptor Gal4-NR reporter assays and the NIMH Psychoactive Drug Screening Program (PDSP) assays. We assessed the specificity of STL1267 in the PDSP’s radioligand displacement assays, screening for binding to off-target GPCRs, ion channels, transporters, and other drug targets (Table S1). Of the 43 targets assessed in this panel, we observed no detectable binding in 41 of them. […] Additional assessment in serotonin transporter and kappa opioid receptor activity in a functional assay may be warranted to determine absolute specificity.
as §1, §2
(§4) HEK293 cells transfected with Gal4-UAS l uc i f eras e and […]

ERα = ERα (Homo sapiens, UniProt P03372); test: as above; type: cell-based; conditions: Gal4 DBD-NR, HEK293 cells, 10 µM; ERa
Source text: as §3, §1, §2, §4

ERβ = ERβ (Homo sapiens, UniProt Q92731); test: as above; type: cell-based; conditions: Gal4 DBD-NR, HEK293 cells, 10 µM; ERb
Sequence of ERβ (Q92731 264-498 limits assumed): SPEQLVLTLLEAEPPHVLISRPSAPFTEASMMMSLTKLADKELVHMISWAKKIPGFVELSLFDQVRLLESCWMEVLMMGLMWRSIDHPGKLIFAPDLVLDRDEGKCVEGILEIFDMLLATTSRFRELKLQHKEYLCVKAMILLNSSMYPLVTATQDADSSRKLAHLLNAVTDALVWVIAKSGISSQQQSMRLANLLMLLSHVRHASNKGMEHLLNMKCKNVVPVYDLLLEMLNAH
Source text: as §3, §1, §2, §4

LXRα = LXRα (Homo sapiens, UniProt Q13133); test: as above; type: cell-based; conditions: Gal4 DBD-NR, HEK293 cells, 10 µM; LXRa
Source text: as §3, §1, §2, §4

PR = PR (Homo sapiens, UniProt P06401); test: as above; type: cell-based; conditions: Gal4 DBD-NR, HEK293 cells, 10 µM
Sequence of PR (P06401 679-933 limits assumed): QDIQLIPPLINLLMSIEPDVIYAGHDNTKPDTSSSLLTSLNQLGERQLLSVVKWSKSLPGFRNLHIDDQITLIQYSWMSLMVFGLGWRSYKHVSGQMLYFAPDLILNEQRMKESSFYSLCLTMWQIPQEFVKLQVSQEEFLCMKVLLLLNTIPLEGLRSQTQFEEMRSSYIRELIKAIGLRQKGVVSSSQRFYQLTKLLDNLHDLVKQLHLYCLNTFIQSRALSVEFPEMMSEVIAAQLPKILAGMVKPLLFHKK
Source text: as §3, §1, §2, §4

RARα = RARα (Homo sapiens, UniProt P10276); test: as above; type: cell-based; conditions: Gal4 DBD-NR, HEK293 cells, 10 µM; RARa
Sequence of RARα (P10276 183-417 limits assumed): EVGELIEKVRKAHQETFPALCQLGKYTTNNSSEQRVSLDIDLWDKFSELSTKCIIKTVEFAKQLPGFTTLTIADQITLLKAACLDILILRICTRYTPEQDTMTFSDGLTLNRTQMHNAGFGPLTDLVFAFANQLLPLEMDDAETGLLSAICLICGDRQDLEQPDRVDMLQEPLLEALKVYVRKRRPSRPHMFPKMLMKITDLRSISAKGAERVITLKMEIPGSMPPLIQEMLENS
Source text: as §3, §1, §2, §4

TRα = target: T14, TRα (Homo sapiens, UniProt P10827); test: as above; type: cell-based; conditions: Gal4 DBD-NR, HEK293 cells, 10 µM; TRa
T14 construct: purchased NIMH Psychoactive Drug Screening Program (PDSP); in-house Gal4-NR LBD cotransfection assays
Source text: as §3, §1, §2, §4

VDR = VDR (Homo sapiens, UniProt P11473); test: as above; type: cell-based; conditions: Gal4 DBD-NR, HEK293 cells, 10 µM
Sequence of VDR (P11473 127-427 limits assumed): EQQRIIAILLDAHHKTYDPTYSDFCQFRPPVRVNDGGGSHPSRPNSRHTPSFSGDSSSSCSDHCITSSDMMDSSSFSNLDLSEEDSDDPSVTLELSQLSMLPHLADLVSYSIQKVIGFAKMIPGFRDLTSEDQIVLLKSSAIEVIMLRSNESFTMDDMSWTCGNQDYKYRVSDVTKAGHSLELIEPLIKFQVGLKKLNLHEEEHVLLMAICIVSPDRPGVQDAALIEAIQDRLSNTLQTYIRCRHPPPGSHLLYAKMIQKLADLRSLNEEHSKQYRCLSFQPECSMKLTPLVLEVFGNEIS
Source text: as §3, §1, §2, §4

T1 sequence (P08908 whole entry, species assumed): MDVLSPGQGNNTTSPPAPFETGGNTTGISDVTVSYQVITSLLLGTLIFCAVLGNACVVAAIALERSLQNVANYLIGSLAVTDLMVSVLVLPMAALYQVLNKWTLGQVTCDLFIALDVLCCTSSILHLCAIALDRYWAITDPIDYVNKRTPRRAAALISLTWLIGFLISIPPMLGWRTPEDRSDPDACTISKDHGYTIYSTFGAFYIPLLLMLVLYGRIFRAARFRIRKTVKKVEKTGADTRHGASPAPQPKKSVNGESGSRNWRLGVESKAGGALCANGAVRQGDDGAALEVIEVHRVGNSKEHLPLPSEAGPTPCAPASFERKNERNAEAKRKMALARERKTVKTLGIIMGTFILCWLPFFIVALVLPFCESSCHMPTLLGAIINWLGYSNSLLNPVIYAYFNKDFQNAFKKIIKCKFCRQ

Structure (SMILES): Clc1nnc2ccc(Oc3ccccc3-c3ccccc3)nn12 [STL1267]
- Ki (5-HT1A): > 10 µM
- Ki (5-HT1D): > 10 µM
- Ki (5-HT2A): > 10 µM
- Ki (5-HT2B): > 10 µM
- Ki (5-HT2C): > 10 µM
- Ki (5-HT3): > 10 µM
- Ki (5-HT5A): > 10 µM
- Ki (5-HT7A): > 10 µM
- Ki (Alpha1B): > 10 µM
- Ki (Alpha1D): > 10 µM
- Ki (Alpha2A): > 10 µM
- Ki (Alpha2B): > 10 µM
- Ki (Alpha2C): > 10 µM
- Ki (Beta2): > 10 µM
- Ki (Beta3): > 10 µM
- Ki (D1): > 10 µM
- Ki (D2): > 10 µM
- Ki (D3): > 10 µM
- Ki (D4): > 10 µM
- Ki (DAT): > 10 µM
- Ki (DOR): > 10 µM
- Ki (GABAA): > 10 µM
- Ki (H1): > 10 µM
- Ki (H4): > 10 µM
- Ki (M1): > 10 µM
- Ki (M2): > 10 µM
- Ki (M3): > 10 µM
- Ki (M4): > 10 µM
- Ki (M5): > 10 µM
- Ki (MOR): > 10 µM
- Ki (NET): > 10 µM
- activity (AR): did not detect activity
- activity (ERα): did not detect activity
- activity (ERβ): did not detect activity
- activity (LXRα): did not detect activity
- activity (PR): did not detect activity
- activity (RARα): did not detect activity
- activity (TRα): did not detect activity
- activity (VDR): did not detect activity
